Source: ChEMBL document CHEMBL1770148, “Dual function inhibitors of relevance to chronic obstructive pulmonary disease” (Bioorg Med Chem Lett, 2011)
The source made the active and inactive calls. The rule behind the calls is not given here.

Legend:
Caspase-1 (Homo sapiens) [1] = target: T1, Caspase-1 (Homo sapiens) (UniProt P29466); test: Inhibition of caspase 1 by Z-Asp-CH2DCB released from compound using […] substrate after 2 mins in presence of human neutrophil elastase
T1 sequence (whole entry): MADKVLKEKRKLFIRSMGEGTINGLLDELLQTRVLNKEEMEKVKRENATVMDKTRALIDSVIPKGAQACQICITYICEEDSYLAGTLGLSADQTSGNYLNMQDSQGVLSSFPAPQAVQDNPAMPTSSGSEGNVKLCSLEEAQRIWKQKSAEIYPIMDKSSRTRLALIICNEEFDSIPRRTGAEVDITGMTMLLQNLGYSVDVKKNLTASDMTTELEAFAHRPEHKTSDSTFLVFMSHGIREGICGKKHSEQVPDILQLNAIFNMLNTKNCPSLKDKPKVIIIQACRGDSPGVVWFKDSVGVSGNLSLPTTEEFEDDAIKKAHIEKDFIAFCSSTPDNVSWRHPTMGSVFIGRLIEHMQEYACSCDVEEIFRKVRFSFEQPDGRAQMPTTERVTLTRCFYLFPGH

[2] = target: T2, Myeloblastin (Homo sapiens) (UniProt P24158); test: Inhibition of proteinase 3 after 30 mins
T2 sequence (whole entry): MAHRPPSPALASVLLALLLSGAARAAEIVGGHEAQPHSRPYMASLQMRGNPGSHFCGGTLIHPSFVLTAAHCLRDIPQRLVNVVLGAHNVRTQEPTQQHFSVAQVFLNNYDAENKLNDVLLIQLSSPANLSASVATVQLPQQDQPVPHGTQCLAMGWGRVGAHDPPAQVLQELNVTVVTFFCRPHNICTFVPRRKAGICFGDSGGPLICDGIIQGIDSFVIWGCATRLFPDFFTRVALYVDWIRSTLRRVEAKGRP

[3] = target: T3, Neutrophil elastase (Homo sapiens) (UniProt P08246); test: Inhibition of human neutrophil elastase assessed as remaining activity using MeOSuc-AAPV-pNA substrate at 10.5 uM; conditions: TDE = time-dependent effect
T3 sequence (whole entry): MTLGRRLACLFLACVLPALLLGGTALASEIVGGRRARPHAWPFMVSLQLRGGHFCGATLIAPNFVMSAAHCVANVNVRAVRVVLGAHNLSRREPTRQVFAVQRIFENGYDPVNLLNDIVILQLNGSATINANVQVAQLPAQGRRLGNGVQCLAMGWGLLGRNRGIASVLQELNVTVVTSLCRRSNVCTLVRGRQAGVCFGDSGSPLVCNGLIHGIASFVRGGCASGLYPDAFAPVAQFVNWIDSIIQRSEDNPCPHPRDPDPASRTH

Caspase-1 (Homo sapiens) [4] = target: T1, Caspase-1 (Homo sapiens); test: Inhibition of caspase 1 using […] substrate

`CCC[C@H]1C(=O)N(COC(=O)C[C@H](NC(=O)OCc2ccccc2)C(=O)COC(=O)c2c(Cl)cccc2Cl)S(=O)(=O)N1C` was tested, and the inhibition (Caspase-1 (Homo sapiens) [1]) was “Active”, the inhibition [2] was “inactive” and the inhibition [3] was “tde”. For the same compound, the inhibition (Caspase-1 (Homo sapiens) [4]) was “inactive”.
